In this experiment the target is Alpha-glucosidase MAL12 (Saccharomyces cerevisiae) (UniProt P53341). As to the kind of experiment: Potency index, ratio of acarbose IC50 to compound IC50 for bakers yeast alpha-glucosidase.
Alpha-glucosidase MAL12 (Saccharomyces cerevisiae), sequence (P53341 whole entry, looked up): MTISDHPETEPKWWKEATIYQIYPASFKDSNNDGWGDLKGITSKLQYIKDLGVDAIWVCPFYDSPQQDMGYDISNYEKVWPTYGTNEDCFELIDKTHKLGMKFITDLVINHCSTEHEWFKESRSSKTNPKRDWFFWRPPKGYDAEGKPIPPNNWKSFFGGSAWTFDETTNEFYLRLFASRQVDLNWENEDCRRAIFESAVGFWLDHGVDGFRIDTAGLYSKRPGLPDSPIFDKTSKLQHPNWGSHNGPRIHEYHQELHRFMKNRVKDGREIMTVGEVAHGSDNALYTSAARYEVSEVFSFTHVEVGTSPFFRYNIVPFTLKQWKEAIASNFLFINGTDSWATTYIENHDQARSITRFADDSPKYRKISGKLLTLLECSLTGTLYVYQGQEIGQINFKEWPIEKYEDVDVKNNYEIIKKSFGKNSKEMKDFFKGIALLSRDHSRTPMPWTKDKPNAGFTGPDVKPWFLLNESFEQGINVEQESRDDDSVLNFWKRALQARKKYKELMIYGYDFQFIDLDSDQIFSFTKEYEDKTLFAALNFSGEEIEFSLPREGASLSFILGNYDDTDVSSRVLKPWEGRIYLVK

On to `CCOc1ccccc1NC(=O)Cn1cc(Cn2c(-c3cccc(Br)c3)nc(-c3ccccc3)c2-c2ccccc2)nn1`, for which the Ratio IC50 worked out at 52.

These data come from ChEMBL document CHEMBL3867466, “Synthesis and biological evaluation of novel 2,4,5-triarylimidazole-1,2,3-triazole derivatives via click chemistry as α-glucosidase inhibitors” (Bioorg Med Chem Lett, 2016).
